Data taken from patent publication US20130266557A1, “METHODS FOR TREATMENT OF A SARCOMA USING AN EPIMETABOLIC SHIFTER (COENZYME Q10)” (priority 2009, published 2013).

System: NCIES0808 cells
Assay: Two-dimensional gel analysis with MS identification
Format: cell-based, human
Settings: − = down, 1 = no change; for Spot 154, Translin-associated factor X: modulation vs control media / Spot 240, Proteasome 26S subunit 13; Endophilin B1: modulation vs control media / Spot 284, Proteasome 26S subunit: modulation vs control media / Spot 583, hnRNP C1/C2: modulation vs control media / Spot 612, Myosin Regulatory Light Chain: modulation vs control media / Spot 667, Dismutase Cu/Zn Superoxide: modulation vs control media / Spot 685, hnRNP C1/C2: modulation vs control media / Spot 746, Actin-like 6A; Eukaryotic Initiation Factor 4All: modulation vs control media / Spot 938, Nuclear Chloride Channel protein: modulation vs control media / Spot 940, Ubiquilin 1; Phosphatase 2A: modulation vs control media: 3 hours; for Spot 452, acid phosphatase 1: modulation vs control media / Spot 477, diazepam binding inhibitor: modulation vs control media / Spot 530, ribosomal protein SA: modulation vs control media / Spot 652, proteasome beta 3: modulation vs control media / Spot 720, dCTP pyrophosphatase 1: modulation vs control media / Spot 773, proteasome beta 4: modulation vs control media / Spot 1057, Arsenite translocating ATPase; Spermine synthetase: modulation vs control media: 6 hours
Experimental: NCIES0808 cells were plated in T25 flasks in experimental conditions similar to those described in the PCR array section. At the end of the treatment time, cells were trypsinized as described in the PCR array section and washed twice in ice cold TBS and snap frozen in liquid nitrogen. Further processing for Western blots was carried out at UMass.
Before isoelectric focusing (IEF), samples were solubilized in 40 mM Tris, 7 M urea, 2 M thiourea, and 1% C7 zwitterionic detergent, reduced with tributylphosphine, and alkylated with 10 mM acrylamide for 90 min at room temperature. After the sample was run through a 10-kDa cutoff Amicon Ultra device with at least 3 volumes of the resuspension buffer, consisting of 7 M urea, 2 M thiourea, and 2% CHAPS to reduce the conductivity of the sample. One hundred micrograms of protein were subjected to IEF on 11-cm pH 3 to 10, pH 4 to 7 or pH 6 to 11 immobilized pH gradient strips (GE, Amersham, USA) to 100,000 volts hour. After IEF, immobilized pH gradient strips were equilibrated in 6 M urea, 2% SDS, 50 mM Tris-acetate buffer, pH 7.0, and 0.01% bromphenol blue and subjected to SDS-polyacrylamide gel electrophoresis on 8 to 16% Tris-HCl Precast Gel, 1 mm (Bio-Rad, USA). The gels were run in duplicate. They were fixed, stained in SYPRO Ruby, 80 mL/gel (Invitrogen, USA) and imaged on Fuji FLA-5100 laser scanner.
Analysis of all gel images was performed using Progenesis Discovery and Pro (Nonlinear Dynamics Inc., Newcastle upon Tyne, UK). After spot detection, matching, background subtraction, normalization, and filtering, data for SYPRO Ruby gel images was exported. […] Manual annotation of each statistically significant spots was performed to assure accurate detection.
Tryptic peptides extracted from respective gel plugs were dried down to a 10 ul volume and acidified with 1-2 ul of 1% TFA. Samples were loaded on an uC18 Zip Tip (Millipore, Corp) after pre-equilibration in 0.1% TFA. After washing with 2×10 ul aliquots of 0.1% TFA, samples were deposited directly onto the MALDI sample target using 1 ul of Matrix solution 15 mg/ml of 2,5 Dihydroxybenzoic Acid (MassPrep DHB, Waters Corp.) in 50:50 Acetonitrile: 0.1% TFA. Samples were allowed to air dry prior to insertion into the mass spectrometer. Analysis were performed on a Kratos Axima QIT (Shimadzu Instruments) matrix-assisted-laser desorption/ionization (MALDI) mass spectrometer. Peptides were analyzed in positive ion mode in mid mass range (700-3000 Da). The instrument was externally calibrated with Angiotensin II (1046.54), P14R (1533.86) and ACTH (18-39) 2465.20 Da. Precursors were selected based on signal intensity at a mass resolution width of 250 for CID fragmentation using Argon as the collision gas. Database searches were performed in house with Mascot (Matrix Sciences, Ltd.) using the Peptide Mass Fingerprint program for MS data and the MS/MS Ion Search program for CID data. All identifications were confirmed or established with CID (MS/MS) data.
NCIES0808 cells treated for 3, 6 and 24 hours were subjected to 2-D gel electrophoreses and were analyzed to identify protein-level changes relative to the control media samples. A comparative analysis of spots across multiple duplicated gels was performed, comparing the “control media sample” against all of the treated samples at both the 50 uM and 100 uM doses. The analysis included the identification of spot changes over the time course due to an increase, decrease, or post-translational modification.

**Q.** Which results are given for Coenzyme Q10 [CoQ10]?
**A.** Spot 154, Translin-associated factor X: modulation vs control media (50 uM Q10): 1; Spot 240, Proteasome 26S subunit 13; Endophilin B1: modulation vs control media (50 uM Q10): −1.3; Spot 284, Proteasome 26S subunit: modulation vs control media (50 uM Q10): −1.1; Spot 583, hnRNP C1/C2: modulation vs control media (50 uM Q10): 1.4; Spot 612, Myosin Regulatory Light Chain: modulation vs control media (50 uM Q10): 1.4; Spot 667, Dismutase Cu/Zn Superoxide: modulation vs control media (50 uM Q10): −1.1; Spot 685, hnRNP C1/C2: modulation vs control media (50 uM Q10): 1.2; Spot 746, Actin-like 6A; Eukaryotic Initiation Factor 4All: modulation vs control media (50 uM Q10): −1.3; Spot 938, Nuclear Chloride Channel protein: modulation vs control media (50 uM Q10): −1.2; Spot 940, Ubiquilin 1; Phosphatase 2A: modulation vs control media (50 uM Q10): 1; Spot 154, Translin-associated factor X: modulation vs control media (100 uM Q10): −1.9; Spot 240, Proteasome 26S subunit 13; Endophilin B1: modulation vs control media (100 uM Q10): 1.5; Spot 284, Proteasome 26S subunit: modulation vs control media (100 uM Q10): −1.6; Spot 583, hnRNP C1/C2: modulation vs control media (100 uM Q10): 1.5; Spot 612, Myosin Regulatory Light Chain: modulation vs control media (100 uM Q10): 1.4; Spot 667, Dismutase Cu/Zn Superoxide: modulation vs control media (100 uM Q10): −1.4; Spot 685, hnRNP C1/C2: modulation vs control media (100 uM Q10): 1.2; Spot 746, Actin-like 6A; Eukaryotic Initiation Factor 4All: modulation vs control media (100 uM Q10): −1.2; Spot 938, Nuclear Chloride Channel protein: modulation vs control media (100 uM Q10): −1.2; Spot 940, Ubiquilin 1; Phosphatase 2A: modulation vs control media (100 uM Q10): 1.3; Spot 452, acid phosphatase 1: modulation vs control media (50 uM Q10): −1.3; Spot 477, diazepam binding inhibitor: modulation vs control media (50 uM Q10): −1.4; Spot 530, ribosomal protein SA: modulation vs control media (50 uM Q10): −1.2; Spot 652, proteasome beta 3: modulation vs control media (50 uM Q10): −1.1; Spot 720, dCTP pyrophosphatase 1: modulation vs control media (50 uM Q10): −1.2; Spot 773, proteasome beta 4: modulation vs control media (50 uM Q10): −1.1; Spot 1057, Arsenite translocating ATPase; Spermine synthetase: modulation vs control media (50 uM Q10): −1.1; Spot 452, acid phosphatase 1: modulation vs control media (100 uM Q10): −1.5; Spot 477, diazepam binding inhibitor: modulation vs control media (100 uM Q10): −1.2; Spot 530, ribosomal protein SA: modulation vs control media (100 uM Q10): −1.4; Spot 652, proteasome beta 3: modulation vs control media (100 uM Q10): −1.3; Spot 720, dCTP pyrophosphatase 1: modulation vs control media (100 uM Q10): −1.2; Spot 773, proteasome beta 4: modulation vs control media (100 uM Q10): −1.2; Spot 1057, Arsenite translocating ATPase; Spermine synthetase: modulation vs control media (100 uM Q10): −1.2; Spot 16, alpha 2-HS glycoprotein (Bos Taurus, cow): modulation vs control media (24 hours, 50 uM Q10): 1.4; Spot 130, ribosomal proten P2; histone H2A: modulation vs control media (24 hours, 50 uM Q10): −1.3; Spot 180, beta actin: modulation vs control media (24 hours, 50 uM Q10): 1.3; Spot 234, hnRNP C1/C2: modulation vs control media (24 hours, 50 uM Q10): −1.2; Spot 244, heat shock protein 70 kD: modulation vs control media (24 hours, 50 uM Q10): 1.1; Spot 275, microtubule associated protein: modulation vs control media (24 hours, 50 uM Q10): 1.1; Spot 311, beta tubulin: modulation vs control media (24 hours, 50 uM Q10): 1.7; Spot 314, proteasome alpha 3: modulation vs control media (24 hours, 50 uM Q10): 1.1; Spot 363, ATP dependent helicase II: modulation vs control media (24 hours, 50 uM Q10): 1.2; Spot 369, eukaryotic translation elongation factor 1 delta: modulation vs control media (24 hours, 50 uM Q10): 1.1
